Test results from ChEMBL document CHEMBL1128712, “Increasing binding constants of ligands to carbonic anhydrase by using "greasy tails"” (J Med Chem, 1995).

Assays:
[1] = Partition coefficient (logD7.5); assay type: physicochemical; settings: octanol/water, pH 7.5
[2] = molecular target: Carbonic anhydrase 2 (Bos taurus) (UniProt P00921); experiment: Evaluation of binding constant to bovine carbonic anhydrase II, measured by fluorescence in 20 mM phosphate buffer (pH=7.5)
[3] = molecular target: Carbonic anhydrase 2 (Bos taurus) (UniProt P00921); experiment: Compound was tested for the binding affinity towards Carbonic anhydrase II by competitive fluorescence assay with dansylamide
[4] = Evaluation of ionization constant between octanol and 20 mM phosphate buffer (pH =7.5); assay type: physicochemical; settings: octanol/20 mM phosphate buffer

Chain of Carbonic anhydrase 2 (Bos taurus) (P00921 2-260 limits assumed): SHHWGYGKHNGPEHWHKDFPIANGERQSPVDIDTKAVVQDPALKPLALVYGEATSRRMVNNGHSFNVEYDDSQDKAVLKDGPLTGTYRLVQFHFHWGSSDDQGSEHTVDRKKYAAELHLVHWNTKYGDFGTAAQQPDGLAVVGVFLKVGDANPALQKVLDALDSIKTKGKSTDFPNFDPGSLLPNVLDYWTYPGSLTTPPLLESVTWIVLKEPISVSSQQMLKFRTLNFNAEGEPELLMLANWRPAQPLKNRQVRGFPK

SMILES	logD [1]	Kb [2]	Kb [3]	pKa [4]
CCCCCCCC(=O)NCc1ccc(S(N)(=O)=O)cc1	1.84	–	1.2e+07 M⁻¹	–
NS(=O)(=O)c1ccc(CNC(=O)C(F)(F)C(F)(F)F)cc1	–	–	–	9.8
CCCNC(=O)c1ccc(S(N)(=O)=O)cc1	0.531	2.6e+07 M⁻¹	–	–
CC(C)CCC(=O)NCc1ccc(S(N)(=O)=O)cc1	1.04	4.8e+06 M⁻¹	–	–
NS(=O)(=O)c1ccc(CNC(=O)CCC2CCCC2)cc1	1.63	1.2e+07 M⁻¹	–	–
CCC(CC)C(=O)NCc1ccc(S(N)(=O)=O)cc1	1	2.9e+06 M⁻¹	–	–
NS(=O)(=O)c1ccc(C(=O)NCC(F)(F)C(F)(F)C(F)(F)F)cc1	2.04	1.1e+09 M⁻¹	–	–
CCCCCCC(=O)NCc1ccc(S(N)(=O)=O)cc1	1.46	5.7e+06 M⁻¹	–	–
CCCCNC(=O)c1ccc(S(N)(=O)=O)cc1	1.11	6.3e+07 M⁻¹	–	–
CCN(CC)C(=O)c1ccc(S(N)(=O)=O)cc1	0.929	1.7e+07 M⁻¹	–	–
NS(=O)(=O)c1ccc(CNC(=O)C(F)(F)F)cc1	–	–	–	10.1
CC1(C)C(C(=O)NCc2ccc(S(N)(=O)=O)cc2)C1(C)C	1.57	1.1e+07 M⁻¹	–	–
CCNC(=O)c1ccc(S(N)(=O)=O)cc1	0.176	5.9e+06 M⁻¹	–	–
CC(=O)NCc1ccc(S(N)(=O)=O)cc1	–	–	–	10.2
CC(C)(C)CC(=O)NCc1ccc(S(N)(=O)=O)cc1	1.04	7.1e+06 M⁻¹	–	–
NS(=O)(=O)c1ccc(C(=O)NCC(F)(F)F)cc1	0.845	4.7e+07 M⁻¹	–	–
NS(=O)(=O)c1ccc(CNC(=O)C2CCCC2)cc1	0.778	6e+06 M⁻¹	–	–

Further lines, results first:

logD [1]	Kb [2]	Kb [3]	pKa [4]	SMILES
1.23	5.1e+06 M⁻¹	–	–	CCCCCC(=O)NCc1ccc(S(N)(=O)=O)cc1
2.21	1.3e+08 M⁻¹	–	–	CCCCCCNC(=O)c1ccc(S(N)(=O)=O)cc1
1.84	7.1e+06 M⁻¹	–	–	CCCCC(CC)C(=O)NCc1ccc(S(N)(=O)=O)cc1 (centres undefined)
0.146	1.1e+07 M⁻¹	–	–	CN(C)C(=O)c1ccc(S(N)(=O)=O)cc1
1.62	1.3e+07 M⁻¹	–	–	NS(=O)(=O)c1ccc(CNC(=O)CC2CCCCC2)cc1
–	–	–	9.9	CCC(=O)NCc1ccc(S(N)(=O)=O)cc1
2.08	1.9e+07 M⁻¹	–	–	CCCN(CCC)C(=O)c1ccc(S(N)(=O)=O)cc1
1.08	7.6e+06 M⁻¹	–	–	NS(=O)(=O)c1ccc(CNC(=O)CC2CCCC2)cc1
1.52	1.8e+08 M⁻¹	–	–	NS(=O)(=O)c1ccc(C(=O)NCC(F)(F)C(F)(F)F)cc1
1.32	5.7e+06 M⁻¹	–	–	CCCC(C)CC(=O)NCc1ccc(S(N)(=O)=O)cc1 (centres undefined)
1.08	7.6e+06 M⁻¹	–	–	NS(=O)(=O)c1ccc(CNC(=O)C2CCCCC2)cc1
1.49	1e+07 M⁻¹	–	–	NS(=O)(=O)c1ccc(CNC(=O)C2CCCCCC2)cc1
